Laboratory results as given in patent publication US20220023289A1, “Application Of Pyrroloquinoline Quinone In Preparation Of Medicament Used For Preventing And Treating Acute Altitude Sickness And Acute Altitude Hypoxia Injury” (priority 2018, published 2022).

Tests used:
[1] = test system: rats exposed to acute altitude hypoxia; experiment: Blood glucose in rats exposed to acute altitude hypoxia (6000 m, 8 h, after 7 days intragastric); format: in vivo, Wistar rat; details: for Blood sugar: 0.11 g/kg
Method: (§1) Select healthy Wistar rats weight 160-200 g, half female and half male. After feeding for 3 days, these Wistar rats are randomly divided into ten groups according to their body weight, each group has 16±2 rats. The groups are divided as follows: five groups of the hypoxic exposure drug test group, respectively, are given 0.91 mg/kg, 1.83 mg/kg, 3.66 mg/kg, 7.31 mg/kg, and 14.63 mg/kg drugs. […] After continuous intragastric administration for 7 days, the animals in the hypoxic exposure group are simultaneously put into the decompression and hypoxia compound experimental chamber, the hatch is closed, and the pressure is reduced at a speed of 10 m/s. After being raised to an altitude of 6000 m and maintained for 8 hours, the speed in 10 m/s drops is reduced to normal altitude, open the hatch, and then take out the animal, collect blood samples (after standing for 1 hour, the supernatant is centrifuged and stored at −20° C.), and liver tissue samples. Detection indicator includes body weight, serum blood glucose, ATP, lactic acid, endothelin, nitric oxide, SOD, CO, MDA related to oxidative stress, and total protein, albumin, triglycerides, total cholesterol, high-density lipoprotein cholesterol, low-density lipoprotein cholesterol, glutamic pyruvic transaminase, total bilirubin, gluamic oxalacetic transaminase, serum urea nitrogen, creatinine, uric acid, lactate dehydrogenase, creatine kinase, α-hydroxybutyrate dehydrogenase; liver ATP, hepatic glycogen. Except that the formal oxygen control animal group is not put into the decompression and hypoxia compound experimental chamber, other experimental conditions and detection indicators are the same.
(§2) Measure blood glucose, total protein, albumin, triglycerides, total cholesterol, high-density lipoprotein cholesterol, low-density lipoprotein cholesterol, glutamic-pyruvic transaminase, total bilirubin, glutamic oxalacetic transaminase, serum urea nitrogen, creatinine, uric acid, lactate dehydrogenase, creatine kinase, α-hydroxybutyrate dehydrogenase, blood homocysteine by using an automatic blood biochemical analyzer.

[2] = Mice weight before hypoxia tolerance test of simulated 10000 m altitude acute decompression; details: 0.16 g/kg
[3] = test system: mice exposed to high altitude hypoxia; experiment: Exhaustive swimming experiment in mice exposed to high altitude hypoxia (6000 m); format: in vivo, Kunming mice
Source text: Select healthy male Kunming mice weight 18-22 g.

[4] = test system: rats exposed to acute altitude hypoxia; experiment: Liver function of rats exposed to acute altitude hypoxia; format: in vivo, Wistar rat
Method: as §1, §2

[5] = test system: rats exposed to acute altitude hypoxia; experiment: Lipid metabolism in rats exposed to acute altitude hypoxia; format: in vivo, Wistar rat
Method: as §1, §2

[6] = Body weight of mice before closed hypoxia tolerance test; details: 0.16 g/kg
[7] = test system: rats exposed to acute altitude hypoxia; experiment: Liver ATP and glycogen in rats exposed to acute altitude hypoxia; format: in vivo, Wistar rat
Method: Determination of adenosine triphosphate (ATP): Perform enzyme-linked immunosorbent assay by double-antibody one-step sandwich method. To the coated microwells pre-coated with rat adenosine triphosphate (ATP) capture antibody, add in sequence the specimens, standard, and HRP-labeled detection antibody, and then incubate and wash thoroughly. Use a substrate TMB for color development, TMB is converted into blue under the catalysis of peroxidase and converted into the final yellow color under the action of acid. The color intensity is positively correlated with the rat adenosine triphosphate (ATP) in the sample. […] Determination of liver glycogen (GC): Perform enzyme-linked immunosorbent assay by double-antibody one-step sandwich method. To the coated microwells pre-coated with rat liver glycogen (GC) capture antibody, add in sequence the specimens, standard, and HRP-labeled detection antibody, and then incubate and wash thoroughly. Use a substrate TMB for color development, TMB is converted into blue under the catalysis of peroxidase and converted into the final yellow color under the action of acid. The color intensity is positively correlated with the rat liver glycogen (GC) in the sample.

[8] = seven days, repeat experiment in male mice
[9] = female rats, hypoxia, 0.11 g/kg
[10] = female rats, normoxia, 0.11 g/kg

## CC(=O)Nc1nnc(S(N)(=O)=O)s1 [Acetazolamide, reference compound]
[1]; acute hypoxia exposed female rats
  effect on blood glucose: no significant effects
[1]; female rats, hypoxia
  Blood sugar: 7.63 ± 0.76 mmol/L
[1]; female rats, normoxia
  effect on blood glucose: lowering the blood glucose
  Blood sugar: 7.18 ± 0.39 mmol/L
[1]; male rats
  effect on blood glucose level: no significant effects
[1]; male rats, hypoxia
  Blood sugar: 8.87 ± 1.24 mmol/L
[2]; administration for 14 days
  Mice weight Female 1 day: 15.24 ± 0.89 g
  Mice weight Female 7 days: 19.35 ± 3.12 g
  Mice weight Male 1 day: 14.66 ± 1.52 g
  Mice weight Male 7 days: 16.29 ± 3.25 g
  Mice weight Male 14 days: 21.16 ± 3.61 g
[2]; administration for three days
  Mice weight Female: 17.80 ± 0.94 g
  Mice weight Male: 18.29 ± 0.85 g
[2]; [8]
  Mice weight Male 1 day: 19.53 ± 0.93 g
  Mice weight Male 7 days: 21.35 ± 2.47 g
[2]; single dose test
  Mice weight Female: 17.31 ± 1.22 g
  Mice weight Male: 19.47 ± 0.57 g
[3]; male mice, 6000 m
  start time of exhaustion swimming death: died earlier
[3]; male mice, 6000 m, 7 days, acetazolamide positive drug control (0.16 g/kg)
  Exhausted swimming survival time: 130.64 ± 79.46 min
[3]; male mice, 6000 m, acetazolamide positive drug control (0.16 g/kg)
  increasing rate of survival time: 2.10%
[3]; mice under low oxygen exposure
  effect on survival time after exhausting swimming / working ability under hypoxia: no effect
[4]; [9]
  Glutamic oxalacetic transaminase: 73.20 ± 11.19 U
  Glutamic-pyruvic transaminase: 28.40 ± 2.30 U
[4]; female rats, normoxia
  effect on glutamic-pyruvic transaminase and glutamic oxalacetic transaminase: no significant effects
[4]; [10]
  Glutamic oxalacetic transaminase: 102.33 ± 11.02 U
  Glutamic-pyruvic transaminase: 41.67 ± 10.97 U
[4]; hypoxia exposed male rats
  effect on glutamic pyruvic transaminase and total bilirubin: no significant effects
  effect on serum glutamic oxalacetic transaminase: increasing
[4]; male rats, hypoxia, 0.11 g/kg
  Glutamic oxalacetic transaminase: 77.57 ± 6.80 U
  Glutamic-pyruvic transaminase: 44.00 ± 3.56 U
  Total bilirubin: 0.15 ± 0.16 µmol/L
[5]; [9]
  High density lipoprotein cholesterol: 1.55 ± 0.19 mmol/L
  Low density lipoprotein cholesterol: 0.17 ± 0.04 mmol/L
  Total cholesterol: 2.02 ± 0.20 mmol/L
[5]; female rats, normoxia
  effect on low-density lipoprotein cholesterol: no significant effects
  effect on total cholesterol and high-density lipoprotein cholesterol: can increase
[5]; [10]
  High density lipoprotein cholesterol: 1.67 ± 0.07 mmol/L
  Low density lipoprotein cholesterol: 0.16 ± 0.02 mmol/L
  Total cholesterol: 2.14 ± 0.10 mmol/L
[5]; hypoxia exposed female rats
  effect on total cholesterol, low-density and high-density lipoprotein cholesterol: increasing
[5]; male rats
  effect on total, high-density and low-density lipoprotein cholesterol: no significant effect
[5]; male rats exposed to hypoxia
  effect on triglycerides: is not found
[5]; male rats, hypoxia, 0.11 g/kg
  High density lipoprotein cholesterol: 1.39 ± 0.14 mmol/L
  Low density lipoprotein cholesterol: 0.21 ± 0.05 mmol/L
  Total cholesterol: 1.88 ± 0.21 mmol/L
  Triglycerides: 1.05 ± 0.49 mmol/L
[6]; female mice
  weight 1 day: 20.27 ± 0.90 g
  weight 3 days: 20.88 ± 1.50 g
[6]; male mice
  weight 1 day: 15.41 ± 1.08 g
  weight 3 days: 15.88 ± 1.24 g
[7]; female rats, after hypoxia exposure and normoxia
  effect on liver ATP and glycogen content: no significant effects
[7]; [9]
  liver Glycogen: 3.71 ± 0.27 ng/mL
[7]; [10]
  liver ATP: 1.39 ± 0.54 µg/mL
  liver Glycogen: 2.75 ± 1.13 ng/mL
[7]; male rats
  effect on liver ATP and glycogen content: no significant effects
[7]; male rats, hypoxia, 0.11 g/kg
  liver Glycogen: 2.14 ± 0.21 ng/mL
